Data on 18 compounds can be found in patent US20220378043A1, “BIOFILM TREATMENT AGENT AND BIOFILM TREATMENT METHOD” (SEIKO PMC CORPORATION, priority 2019, published 2022).

Values after ≈ are worked out from the molar mass of the structure shown. Where two headings read alike, the source gives them in different places. Residues, ends and D or L forms follow the SMILES beside them. A value given as a limit tells only on which side of the number the result lay.

Test [1] concerns Pseudomonas aeruginosa (deposit number: NBRC106052 strain). Description: Minimum inhibitory concentration (MIC) test. It counts as cell-based. How it is done:
A compound (hereinafter, sometimes referred to as a substance to be evaluated) that is a component of a biofilm treatment agent is diluted stepwise with a bouillon medium for testing susceptibility to prepare a total amount of 10 mL of dilution series (with the proviso of being 1.1 times the target concentration). 20 μL of a bacterial suspension which has been prepared such that there is 10^8 cfu/mL of Pseudomonas aeruginosa (deposit number: NBRC106052 strain) which is a representative strain of biofilm-forming bacteria as a test bacterial strain is added thereto and subjected to shaking culture (2000 rpm) with a 96-well microplate mixer at 37° C. for 24 hours. The lowest concentration in the dilution series which is not visually turbid is regarded as the MIC.
Pseudomonad (gram-negative bacterium) known as a model bacterium forming a biofilm was used as a test bacterium to MIC's of compounds (hereinafter, substances to be evaluated) that are components of a biofilm treatment agent.
(1) Test Bacterium Pseudomonas aeruginosa (Deposit Number: NBRC106052 Strain)
Each substance to be evaluated was diluted stepwise with a bouillon medium for testing susceptibility to prepare a total amount of 10 mL of dilution series (with the proviso of being 1.1 times the target concentration). 20 μL of a bacterial suspension which had been prepared such that there was 10^8 cfu/mL of a test bacterial strain was added thereto and subjected to shaking culture (2000 rpm) with a 96-well microplate mixer at 37° C. for 24 hours. The lowest concentration in the dilution series which was not visually turbid was regarded as the MIC.

Test [2] deals with Pseudomonas aeruginosa (deposit number: NBRC106052 strain) biofilm. The test is described as follows: Evaluation of biofilm-removing effect (crystal violet staining of pre-formed biofilm). It counts as cell-based. To be noted: Table 4: anthranilic acid analog and/or biosurfactant or synthetic surfactant, each at Table 2 concentration, pH 7.0, 3.5 hours contact. The source says: In the present invention, the biofilm-removing effect is an action of removing biofilms formed by bacteria. Examples of methods for evaluating an effect of removing substances to be evaluated include a method for comparing the amount of biofilm formed after bringing the substance to be evaluated into contact with a biofilm formed through culturing bacteria for a certain period of time with the amount of biofilm (control) formed after the elapse of a certain period of time without the biofilm being brought into contact with the substance to be evaluated. In this case, when the amount of biofilm formed is smaller than that of the control, it can be determined that the substance to be evaluated has a biofilm-removing effect.
(i) A triptic soy broth (TBS, Bacto: manufactured by Difco Laboratories) medium having a final concentration of glucose of 1% is used for Pseudomonas aeruginosa (deposit number: NBRC106052 strain) which is a representative strain of biofilm-forming bacteria to prepare a preculture solution under the condition of 120 rpm.
(ii) The preculture solution of which the turbidity (OD) is adjusted to 0.1 is diluted with a TSB medium so that the final concentration is 0.000005% (v/v), and 2 mL of the diluent is dispensed into a 12-well plate. Here, the following OD (turbidity) is a value which is measured with a spectrophotometer (iMark Microplate Reader: manufactured by Bio-Rad Laboratories, Inc.) at a wavelength of 630 nm in which distilled water is used as a blank.
(iii) Culture is performed under the conditions of 37° C. and 130 rpm for 17 hours to form a biofilm.
(iv) The culture solution in each well is removed and each well is rinsed twice with distilled water.
(v) A substance to be evaluated is added to a medium at an appropriate concentration less than the MIC of the target substance, and the pH of the medium is adjusted to 7.0 with hydrochloric acid or sodium hydroxide. 2 mL of a sterile medium (pH=7.0) is added to each well to be used as a negative control.
(vi) Each well is shaken at the same temperature as that of the preculture for 3.5 hours at 130 rpm, the biofilm is brought into contact with the medium containing the substance to be evaluated, and then, the medium in each well is removed, and each well is rinsed twice with distilled water.
(vii) 2 mL of an aqueous crystal violet solution (0.4 w/v %, 20 w/v % methanol) is added to the biofilm adhering in each well, allowed to stand for 2 minutes, and allowed to stain, and then, the stained biofilm is rinsed three times with distilled water, and the aqueous crystal violet solution which has not been bound to the biofilm is removed.
(viii) 2 mL of ethanol is added to each well and allowed to stand for 1 hour to elute crystal violet from the stained biofilm, and the absorbance is measured. Here, the following absorbance is a value which is measured with a spectrophotometer (iMark Microplate Reader: manufactured by Bio-Rad Laboratories, Inc.) at a wavelength of 595 nm in which distilled water is used as a blank.
(ix) Regarding the absorbance of the negative control and each substance to be evaluated, absorbances measured for 4 wells are taken as an average value, and the removal rate of each biofilm is calculated from the following calculation equation.
Biofilm removal rate (%)={1-(absorbance of substance to be evaluated/absorbance of negative control)}×100
The biofilm-removing effect and the biofilm formation-inhibiting effect of each of the substances to be evaluated shown in Table 1 were confirmed according to the evaluation methods specified in the present invention using each biofilm treatment agent containing each substance to be evaluated as a biofilm treatment agent component. In addition, evaluation results of the biofilm-removing effect and the biofilm formation-inhibiting effect of each aromatic monohydric alcohol alone are shown in […]

Where [3] appears, read: Pseudomonas aeruginosa, NBRC106052, 24 h.
Setting [4] is: Pseudomonas aeruginosa, NBRC106052, bouillon medium, 37° C., 24 hours, lowest concentration not visually turbid, read-out: MIC.
Setting [5] is: bouillon medium, 37° C., 24 hours, lowest concentration not visually turbid.

In test [1] (setting [3]), `OCC(O)COc1ccccc1` (stereo not drawn) [compound 3, 3-Phenoxy-1,2-propanediol] gave an MIC of over 5000 µg/mL. On the same count and under the same terms, to `CC(O)c1ccccc1` (stereo not drawn) [Example 2, 1-Phenylethanol] belongs 5000 µg/mL (≈ 40.9 mM). As to `N#CC(Br)(Br)C(N)=O` [compound 4, 2,2-dibromo-3-nitrilopropionamide], in test [1] (setting [4]), the MIC stood at 19.5 µg/mL (≈ 0.0806 mM).

As for Sophorolipid [Comparative Example 10], the MIC in test [1] (setting [5]) is reported as >10,000 ppm. Further, the “Removal results (removal rate %)” value in test [2] is 36%. As for `OCC(CO)c1ccccc1` [compound 2, 2-Phenyl-1,3-propanediol], the MIC in test [1] (setting [4]) is over 5000 µg/mL. Turning to `COC(=O)c1ccccc1N` [Comparative Example 6, Methyl anthranilate], in test [1] (setting [3]), 1250 µg/mL (≈ 8.27 mM) was the least that counted as inhibitory (MIC). Besides, in test [2], the “Removal results (removal rate %)” value is 33%.

In the case of Rhamnolipid [Comparative Example 8], in test [1] (setting [5]), the MIC is reported as >10,000 ppm. Also, in test [2], the “Removal results (removal rate %)” value came out at 24%. Turning to `OCCc1ccccc1` [Example 3, 2-Phenylethanol], the MIC in test [1] (setting [4]) worked out at 5000 µg/mL (≈ 40.9 mM).

Take polyoxyethylene lauryl ether [POELE]: the MIC in test [1] (setting [5]) is >2,000 ppm. On to `OCCCOc1ccccc1` [Example 5, 3-Phenoxy-1-propanol], for which inhibition of growth in test [1] (setting [3]) (MIC) required 2500 µg/mL (≈ 16.4 mM). Still for that read-out and setting: under `OCCOc1ccccc1` [Example 4, 2-Phenoxyethanol] stands 2500 µg/mL (≈ 18.1 mM). As for `OCC=Cc1ccccc1` [Example 6, Cinnamyl alcohol], the MIC in test [1] (setting [4]) amounted to 2500 µg/mL (≈ 18.6 mM). Same read-out and setting: under `CCCCCO` [Comparative Example 1, 1-Pentanol] stands over 5000 µg/mL. Take `CC(C)CCCCCCCCC[C@@H]1CC(=O)N[C@@H](CCC(=O)O)C(=O)N[C@@H](CC(C)C)C(=O)N[C@H](CC(C)C)C(=O)N[C@@H](C(C)C)C(=O)N[C@@H](CC(=O)O)C(=O)N[C@H](CC(C)C)C(=O)N[C@@H](CC(C)C)C(=O)O1` [Comparative Example 9, Surfactin] (HELM PEPTIDE1{E.L.[dL].V.D.[dL].L}|CHEM1{[CC(C)CCCCCCCCC[C@H](CC(=O)[*:1])O[*:2]]}$PEPTIDE1,CHEM1,1:R1-1:R1|PEPTIDE1,CHEM1,7:R2-1:R2$$$V2.0): the MIC in test [1] (setting [4]) was 10000 µg/mL (≈ 9.65 mM). Moreover, in test [2], the “Removal results (removal rate %)” value came to 24%. In the case of `CCCCCCCCCCCCOS(=O)(=O)[O-].[Na+]` [SDS, sodium dodecyl sulfate], the MIC in test [1] (setting [4]) stood at 2000 µg/mL. For `Nc1ccccc1C(=O)O` [Comparative Example 7, Anthranilic acid], inhibition of growth in test [1] (setting [3]) (MIC) required 10000 µg/mL (≈ 72.9 mM). For the same compound, the “Removal results (removal rate %)” value in test [2] is given as 20%. In the case of `NC(=O)c1ccccc1N` [Comparative Example 5, Anthranylamide], the MIC in test [1] (setting [5]) is 5,000 ppm. Moreover, the “Removal results (removal rate %)” value in test [2] came to 25%. Turning to `OCc1ccccc1` [Example 1, 1-Phenylmethanol], in test [1] (setting [4]), the MIC amounted to 2500 µg/mL (≈ 23.1 mM).

In general, MIC refers to the lowest concentration found to suppress growth.
